Source: ChEMBL document CHEMBL4433201, “Progress in the development of selective heme oxygenase-1 inhibitors and their potential therapeutic application” (Eur J Med Chem, 2019)

How the values were obtained:
[1] = target: T1, Heme oxygenase 1 (Rattus norvegicus, UniProt P06762); assay: Inhibition of HO-1 in Sprague-Dawley rat spleen microsomes using NADPH as substrate preincubated for 10 mins followed by substrate addition and measured after 15 mins by GC analysis
T1 sequence (P06762 whole entry): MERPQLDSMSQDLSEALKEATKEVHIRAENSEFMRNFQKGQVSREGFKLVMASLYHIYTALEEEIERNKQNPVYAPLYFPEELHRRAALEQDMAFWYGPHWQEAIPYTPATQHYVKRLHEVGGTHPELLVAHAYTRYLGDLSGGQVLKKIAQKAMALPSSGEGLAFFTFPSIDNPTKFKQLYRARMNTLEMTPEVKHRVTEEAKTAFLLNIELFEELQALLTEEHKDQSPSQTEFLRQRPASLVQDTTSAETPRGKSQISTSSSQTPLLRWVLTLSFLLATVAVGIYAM

[2] = target: T2, Heme oxygenase 2 (Rattus norvegicus, UniProt P23711); assay: Inhibition of HO-2 in Sprague-Dawley rat brain microsomes using NADPH as substrate preincubated for 10 mins followed by substrate addition and measured after 15 mins by GC analysis
T2 sequence (P23711 whole entry): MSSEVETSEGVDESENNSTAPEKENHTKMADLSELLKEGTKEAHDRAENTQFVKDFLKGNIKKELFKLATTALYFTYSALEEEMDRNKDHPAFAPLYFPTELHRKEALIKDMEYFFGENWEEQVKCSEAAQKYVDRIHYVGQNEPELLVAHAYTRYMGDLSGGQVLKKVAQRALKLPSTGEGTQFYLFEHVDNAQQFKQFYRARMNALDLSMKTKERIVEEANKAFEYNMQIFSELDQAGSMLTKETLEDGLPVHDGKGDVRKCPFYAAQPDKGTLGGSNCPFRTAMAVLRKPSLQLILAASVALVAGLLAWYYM

[3] = target: T1, Heme oxygenase 1; assay: Inhibition of HO-1 in Sprague-Dawley rat spleen microsomes using NADPH as substrate incubated for 60 mins by spectrometry based assay
[4] = target: T3, Heme oxygenase 1 (Homo sapiens, UniProt P09601); assay: Inhibition of human recombinant HO-1 by spectrometry based assay
T3 sequence (P09601 whole entry): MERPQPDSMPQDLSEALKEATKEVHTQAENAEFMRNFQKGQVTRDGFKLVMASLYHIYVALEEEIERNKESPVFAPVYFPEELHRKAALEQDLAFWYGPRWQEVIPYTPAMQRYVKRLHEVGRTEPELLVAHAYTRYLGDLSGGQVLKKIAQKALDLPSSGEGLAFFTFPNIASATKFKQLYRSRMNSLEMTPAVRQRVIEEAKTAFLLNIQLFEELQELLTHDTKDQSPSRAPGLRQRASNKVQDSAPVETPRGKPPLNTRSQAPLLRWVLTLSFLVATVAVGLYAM

[5] = target: T4, Heme oxygenase 2 (Homo sapiens, UniProt P30519); assay: Inhibition of HO-2 (unknown origin)
T4 sequence (P30519 whole entry): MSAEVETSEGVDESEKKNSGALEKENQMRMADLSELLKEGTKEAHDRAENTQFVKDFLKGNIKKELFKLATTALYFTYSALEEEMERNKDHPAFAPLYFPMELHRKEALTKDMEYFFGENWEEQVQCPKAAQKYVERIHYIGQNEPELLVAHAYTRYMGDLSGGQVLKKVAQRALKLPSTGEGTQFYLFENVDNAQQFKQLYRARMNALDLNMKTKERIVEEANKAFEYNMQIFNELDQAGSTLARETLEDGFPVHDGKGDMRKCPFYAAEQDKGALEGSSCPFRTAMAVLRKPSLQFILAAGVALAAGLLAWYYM

[6] = Growth inhibition of […] B16 cells incubated for 72 hrs by sulforhodamine B assay; assay type: functional; settings: B16, 72 h

SMILES	IC50 [1] [µM]	IC50 [2] [µM]	other results
O=[N+]([O-])c1ccc(C(O)Cn2ccnc2)cc1 (stereo not given)			IC50 [3]: 10 µM
Brc1ccc(CCC2(Cn3ccnc3)OCCO2)cc1			IC50 [4]: 1.9 µM; IC50 [5]: > 100 µM
Brc1cccc(OCCCCn2ccnc2)c1			IC50 [5]: 2.2 µM
OC(Cn1ccnc1)c1ccc(-c2ccc(Br)cc2)cc1 (stereo not given)			IC50 [4]: 0.06 µM
Brc1ccc(Cn2c(CN3CCOCC3)nc3ccccc32)cc1	> 100	30.1	
OC(Cn1ccnc1)c1cccc(Br)c1 (stereo not given)			IC50 [6]: 37 µM
c1ccc(OCCn2ccnc2)cc1			IC50 [3]: 28 µM
O=C(Cn1ccnc1)C12CC3CC(CC(C3)C1)C2			IC50 [5]: > 100 µM
Brc1ccc(CCCCn2ccnc2)cc1			IC50 [4]: 0.25 µM
Brc1ccc(Cn2c(CC3CCCCC3)nc3ccccc32)cc1	> 100	5.4	
O=C(Cn1ccnc1)c1ccc(Br)cc1			IC50 [3]: 2.5 µM
c1ccc(COc2ccc(CCn3ccnc3)cc2)cc1			IC50 [4]: 0.9 µM
Brc1ccc(OCCCCCCn2ccnc2)cc1			IC50 [3]: 10 µM
Brc1ccc(Cn2c(Cn3ccnc3)nc3ccccc32)cc1	2.7	4.2	
FC(F)(F)c1ccc(COc2ccc(CCn3ccnc3)cc2)cc1			IC50 [4]: 54 µM
COc1ccc2[nH]c(=O)c(-c3nc(-c4ccccc4)c(-c4ccccc4)[nH]3)cc2c1			IC50 [3]: 9.2 µM

Now from value to compound, other results behind:

IC50 [1] [µM]	IC50 [2] [µM]	SMILES	other results
> 100	4.3	Clc1ccc(Cn2c(CC3CC4CCC3C4)nc3ccccc32)cc1 (stereo not given)	
> 100	5.1	Brc1ccc(Cn2c(CC3CC4CCC3C4)nc3ccccc32)cc1 (stereo not given)	
> 100	5.4	Clc1ccc(Cn2c(CC3CCCCC3)nc3ccccc32)cc1	
32.4	3.3	Clc1ccc(Cn2c(CC3CCCC3)nc3ccccc32)cc1	
> 100	31.9	Clc1ccc(Cn2c(CN3CCOCC3)nc3ccccc32)cc1	
